Results on 17 compounds are retold here after US8053439B2, “Benzophenone derivatives useful for inhibiting formation of microtubule” (Chong Kun Dang Pharmaceutical Corp., priority 2006, dated 2011).

The assay relates to HL60 cells. Kind of assay: Inhibition effect of HL60 cell line growth (MTT, 3 days). Conditions: Homo sapiens, HL-60, 72 h, read-out: HL60 Growth Inhibition. In kind it is cell-based. As to the method:
1. Inhibition Effect of HL60 Cell Line Growth
A 10% FBS-contained RPMI1640 badge was used for culturing HL60 cells. The test substance was prepared by dissolving in DMSO to a concentration of 10 mg/ml, and continuously diluting with PBS to a final concentration of 100 μg/ml to 0.03 μg/ml. In a 96-well microplate, 180 μl of the badge containing 6.0×10^4 cells/ml of cells and 20 μl of continuously diluted test substance were added. The mixture was cultured at 37° C. with 5% CO2 atmosphere for 3 days. After completion of the cultivation, 50 μl of a solution of 1.25 mg/ml MTT (3-(4,5-dimethylthiazol-2-yl)-2,5-diphenyltetrazolium bromide) dissolved in PBS was added to all wells, and the resulting mixture was reacted at 37° C. for 3 hours. Thus formed formazan crystals were dissolved in 150 μl of DMSO, and an absorbance was measured at 570 nm.

Where [1] appears, read: HL60 cells, 3 days culture, MTT, absorbance 570 nm.

Read-outs that look alike come from different tables or passages of the source.

Take `COc1ccc(-c2cccnc2)cc1C(=O)c1cc(OC)c(OC)c(OC)c1` [Compound 200, (2-methoxy-5-(pyridin-3-yl)phenyl)(3,4,5-trimethoxyphenyl)methanone]: the IC50 came to 130 nM.

Regarding `COc1ccc(-c2ccco2)cc1C(=O)c1cc(OC)c(OC)c(OC)c1` [Compound 203, (5-(furan-2-yl)-2-methoxyphenyl)(3,4,5-trimethoxyphenyl)methanone], under setting [1], the IC50 came to 35 nM.

For `COc1cc(C(=O)c2cc(-c3ccco3)cc(OC)c2OC)cc(OC)c1OC` [Compound 206, (5-(furan-2-yl)-2,3-dimethoxyphenyl)(3,4,5-trimethoxyphenyl)methanone], the IC50 is 145 nM.

`COc1ccc(-c2ccc(OC)c(C(=O)c3cc(OC)c(OC)c(OC)c3)c2)cc1` [Compound 213, (4,4′-dimethoxybiphenyl-3-yl)(3,4,5-trimethoxyphenyl)methanone]: the IC50 under setting [1] turned out to be 137 nM.

As for `COc1cc(C(=O)c2cc(-c3ccco3)ccc2[N+](=O)[O-])cc(OC)c1OC` [Compound 224, (5-(furan-2-yl)-2-nitrophenyl)(3,4,5-trimethoxyphenyl) methanone], the IC50 under setting [1] came out at 110 nM.

For `COc1cc(C(=O)c2cc(-c3ccco3)ccc2N)cc(OC)c1OC` [Compound 225, (2-amino-5-(furan-2-yl)phenyl)(3,4,5-trimethoxyphenyl)methanone], the IC50 under setting [1] came to 58 nM.

Regarding `COc1ccc(-c2ccc(N)c(C(=O)c3cc(OC)c(OC)c(OC)c3)c2)cc1` [Compound 226, (4-amino-4′-methoxybiphenyl-3-yl)(3,4,5-trimethoxyphenyl)methanone], the IC50 was 370 nM.

In the case of `COc1cc(C(=O)c2cc(-c3ccco3)ccc2NC(C)=O)cc(OC)c1OC` [Compound 231, N-(4-(furan-2-yl)-2-(3,4,5-trimethoxybenzoyl)phenyl)acetamide], the IC50 under setting [1] amounted to 120 nM.

Regarding `COc1cc(C(=O)c2cc(-c3ccco3)ccc2NS(C)(=O)=O)cc(OC)c1OC` [Compound 235, N-(4-(furan-2-yl)-2-(3,4,5-trimethoxybenzoyl)phenyl)methanesulfonamide], the IC50 under setting [1] came to 280 nM.

With `COc1cc(C(=O)c2cc(-c3ccco3)ccc2NC(=O)CN)cc(OC)c1OC` [Compound 237, 2-amino-N-(4-(furan-2-yl)-2-(3,4,5-trimethoxybenzoyl)phenyl)acetamide], the IC50 under setting [1] was determined as 270 nM.

In the case of `C=CCNc1ccc(-c2ccco2)cc1C(=O)c1cc(OC)c(OC)c(OC)c1` [Compound 238, (2-(allylamino)-5-(furan-2-yl)phenyl)(3,4,5-trimethoxyphenyl)methanone], under setting [1], the IC50 stood at 340 nM.

As to `COc1cc(C(=O)c2cc(-c3ccco3)ccc2OS(C)(=O)=O)cc(OC)c1OC` [Compound 241, methanesulfonic acid 4-(furan-2-yl)-2-(3,4,5-trimethoxybenzoyl)phenyl], the IC50 under setting [1] stood at 90 nM.

`COc1ccc(-c2ccco2)cc1C(=O)c1cc(CO)c(OC)c(OC)c1` [Compound 249, (5-(furan-2-yl)-2-methoxyphenyl)(3-(hydroxymethyl)-4,5-dimethoxyphenyl)methanone]: the IC50 under setting [1] amounted to 120 nM.

For the compound `COc1ccc(-c2ccco2)cc1C(=O)c1cc(C)c(OC)c(C)c1` [Compound 264, (5-(furan-2-yl)-2-methoxyphenyl)(4-methoxy-3,5-dimethylphenyl)methanone], the IC50 under setting [1] is 480 nM.

On to `COCOc1c(C)cc(C(=O)c2cc(-c3ccco3)ccc2OC)cc1C` [Compound 265, (5-(furan-2-yl)-2-methoxyphenyl)(4-(methoxymethoxy)-3,5-dimethylphenyl)methanone], for which the IC50 under setting [1] came to 390 nM.

Consider `C=CCc1cc(C(=O)c2cc(-c3ccco3)ccc2OC)cc(OC)c1O` [Compound 269, (3-allyl-4-hydroxy-5-methoxyphenyl)(5-(furan-2-yl)-2-methoxyphenyl)methanone], for which the IC50 under setting [1] amounted to 1690 nM.

Regarding `COc1cc(C(=O)c2ccc(-n3cncn3)cc2N)cc(OC)c1OC` [Compound 272, (2-amino-4-(1H-1,2,4-triazol-1-yl)phenyl)(3,4,5-trimethoxyphenyl)methanone], the IC50 under setting [1] was found to be 1340 nM.
